In brackets after ≈: the same amount, converted by molar mass.
Columns and labels:
[1] = MetID on in vivo dog samples (plasma, urine); design: species or system dog (beagles); conditions: for % of the total MS area, Dog Plasma (Female): sampled at 3 h and 30 min
Experimental: (§1) The workup procedure could vary somewhat depending on the compound and dose, but the general procedure was as follows: Two volumes of ACN/methanol (1:1, v:v) were added to the plasma samples and vortex-mixed to precipitate the proteins. Thereafter, the samples were centrifuged for 10 min (at 10,000 g and 4 °C), and the supernatants were diluted with one volume of water. The urine samples were diluted with one volume of ACN/methanol (1:1, v:v) and centrifuged for 10 min (at 10,000 g and 4 °C), followed by a 1:1 dilution with water.
(§2) Structural characterization of metabolites and metabolite profiling were performed using the Waters Acquity ultraperformance liquid chromatography (UPLC) system fitted to a Waters High-Resolution Mass Spectrometer (MS) (Xevo G2-S, Synapt G2-Si, or a Synapt XS MS). The Waters MS systems, equipped with an electrospray ionization (ESI) source, were operated in positive-ion sensitivity mode over a mass range m/z 50–1200 and in negative-ion sensitivity mode over a mass range m/z of 50–1200.
(§3) The reversed-phase gradient elution was performed on an Acquity U(H)-PLC BEH C18 column (2.1 × 100 mm, 1.7 μm, Waters) set at 45 °C. The mobile phases consisted of 0.1% FA in water (A) and ACN (B). […] The injection volume was 2 μL. The MS settings were optimized for the respective MS instrument. […] A scan time of 0.1 s was used, and data were acquired in centroid mode. Collision energy was set to “off” for the low-energy function, whereas in the high-energy MSe functions, the collision energies were typically ramped from 15 to 35 V in the trap cell, with constant collision energies of 20 V in their transfer cells. Cone voltage was set to 25 V for both low- and high-energy functions. For dedicated MS/MS, the m/z of the molecular ion was selected in the quadrupole, and the mass range for fragmentation analysis was typically set between 50 and 1200. The collision energies were either the same as those stated above for MSe data generation or optimized for a specific metabolite. Tune parameters for all MS analyses consisted of a capillary energy of 0.5 kV, sampling cone energy of 40 V, source temperature of 150 °C, desolvation temperature of 550 °C, cone gas flow of 0 L/h, desolvation gas flow of 1200 L/h, and nebulizer pressure of 6.5 bar.
(§4) Metabolite identification was conducted by processing the generated data using the MetaboLynx XS browser (Waters), MassMetaSite and the web interface ONIRO (Mass Analytica). […] Accurate masses of metabolites were determined from the protonated molecules in the positive ESI time-of-flight MS (ESI–TOF–MS) mode and from the deprotonated molecules in the negative ESI–TOF–MS mode. […] For those metabolites where no MS/MS data could be acquired, identification was based on the accurate mass of the molecular ion and the fragmentation seen in the MSe spectrum. Relative amounts of detected metabolites were calculated as % of the total MS area by dividing the MS peak area for the metabolite (or parent compound) by the combined MS peak area for the parent compound and all identified metabolites.

[2] = MetID on in vivo rat plasma samples; design: species or system rat (Han Wistar)
Experimental: as §1, §2, §3, §4

[3] = system: dog hepatocytes; test: Metabolite identification in dog hepatocyte incubations; type: in vitro ADME
Experimental: (§5) Cryopreserved, pooled primary human, dog, and rat hepatocytes were obtained from BioIVT (previously Celsis IVT). L-15 Leibovitz buffer was placed in a water bath to reach 37 °C. Cryopreserved hepatocytes were transferred from a −150 °C freezer on dry ice and immediately immersed in a preheated water bath kept at 37 °C for thawing. When only a small ice crystal could be seen, the content was emptied into a 50 mL falcon tube filled with warm buffer (maximum four vials/falcon tube). The suspension was centrifuged at room temperature for 3 min at 50 g. The supernatant was removed, the pellet was resuspended in a small volume of buffer, and the falcon tube was refilled with buffer, followed by another centrifugation to wash away any remaining storage buffer. Thereafter, the supernatant was removed, and the pellet was dissolved in a small volume of buffer and diluted to a concentration of about 3–5 million cells/mL. After counting the cells using a Casy cell counter, the suspension was diluted to 1 million viable cells/mL and kept at room temperature until use. The viability cutoff was 80%.
(§6) An aliquot of 245 μL of hepatocyte suspension was added to a round-bottomed 96-deep-well plate using a manual multipipette. The deep-well plate was preincubated for 15 min at 37 °C and 13 Hz. Substrate solutions of the assay compounds were prepared by the robot in a 96-well plate as follows: 4 μL of 10 mM DMSO stock solution, followed by the addition of 96 μL of ACN:water (1:1, v:v) and mixing by shaking. 50 μL from each well were transferred to and combined in a new plate, resulting in 100 μL per well and a dilution of 1:1.
(§7) The reaction was started by the addition of 5 μL of 200 μM substrate solution to the preheated hepatocyte suspension, resulting in a final substrate concentration of 4 μM (0.04% DMSO, <0.5% ACN). The incubation was continued at 37 °C and 13 Hz. At each time point (0, 40, and 120 min), a 50 μL sample was taken out and quenched in 200 μL of cold ACN:methanol (1:1, v:v), and the stopped plates were centrifuged for 20 min (set at 4 °C and 4000 g). The supernatant was diluted by taking 50 μL and mixing it with 100 μL of water. Incubations of the positive controls, albendazole and dextromethorphan, were performed in parallel as described above.
as §2
(§8) The reversed-phase gradient elution was performed on an Acquity U(H)-PLC BEH C18 column (2.1 × 100 mm, 1.7 μm, Waters) set at 45 °C. The mobile phases consisted of 0.1% FA in water (A) and ACN (B). […] The injection volume was 2 μL. The MS settings were optimized for the respective MS instrument. […] A scan time of 0.1 s was used, and data were acquired in centroid mode. Collision energy was set to “off” for the low-energy function, whereas in the high-energy MSe functions, the collision energies were typically ramped from 15 to 35 V in the trap cell, with constant collision energies of 20 V in their transfer cells. Cone voltage was set to 25 V for both low- and high-energy functions. For dedicated MS/MS, the m/z of the molecular ion was selected in the quadrupole, and the mass range for fragmentation analysis was typically set between 50 and 1200. The collision energies were either the same as those stated above for MSe data generation or optimized for a specific metabolite.

[4] = system: human hepatocytes; test: Metabolite identification in human hepatocyte incubations; type: in vitro ADME; conditions: 4 μM
Experimental: as §5, §6, §7, §2, §8

[5] = system: human hepatocytes; test: Metabolic stability in human hepatocytes (HH CLint); type: in vitro ADME; conditions: 37 °C, 2 h
Experimental: Metabolic stability in human hepatocytes (HH CLint) was measured by incubating the cells with the test compound at 37 °C for 2 h. An aliquot of the mixture was taken at typically nine defined time points, and the metabolic reaction was stopped by adding ACN. The samples were centrifuged, and the supernatant was analyzed via LC-MS/MS. Intrinsic clearance (CLint) was calculated from the disappearance rate of the parent compound. ,

[6] = Thermodynamic solubility, shake-flask; conditions: 10 mM sodium phosphate buffer, 25 °C, pH 7.4, aqueous buffer, thermodynamic from solid
Experimental: Solubility was measured as the thermodynamic solubility using a shake-flask approach. Here, DMSO was evaporated from the compound stock solution as the first step. The “dried” compounds were then placed into 10 mM sodium phosphate buffer, adjusted to pH 7.4, and equilibrated at 25 °C for 24 h. The samples were centrifuged, and the solution was analyzed by LC-MS/MS to determine the amount of compound in solution.

[7] = after Cmpd 16, semiquantitative
[8] = after Cmpd 16, oral, sampled at 60 min
[9] = dog hepatocytes, incubated for 120 min

SMILES: O=C(O)[C@@H]1CCCC[C@H]1C(=O)c1ccc(-c2cc[nH]n2)cc1 [Cmpd 16 M10]
- % of the total MS area, Dog Plasma (Female) [1, 7]: 1%
- % of the total MS area, Rat Plasma (Female) [2, 8]: 1%
- % of the total MS area, Rat Plasma (Male) [2, 8]: 1%

SMILES: O=C(Nc1c[nH]nc1C(F)(F)F)[C@@H]1CCCC[C@H]1C(=O)c1ccc(-c2cc[nH]n2)cc1 [Cmpd 16 M12]
- % of the total MS area, Dog Plasma (Female) [1, 7]: 2%
- % of the total MS area, Rat Plasma (Female) [2, 8]: 2%

SMILES: O=C(O)[C@H]1OC(OC(=O)[C@@H]2CCCC[C@H]2C(=O)c2ccc(-c3cc[nH]n3)cc2)[C@H](O)[C@@H](O)[C@@H]1O (stereo partly drawn) [Cmpd 16 M13]
- % of the total MS area, Dog Plasma (Female) [1, 7]: 0.5%

SMILES: Cc1nn(C)cc1NC(=O)[C@@H]1CCCC[C@H]1C(=O)c1ccc(-c2cc(C(=O)O)[nH]n2)cc1 [Cmpd 28 M7]
- % of the total MS area, Dog Plasma (Female) ([1]; after Cmpd 28): 5%
- % of the total MS area, Rat Plasma (Female) ([2]; after Cmpd 28, sampled at 4 h): not seen
- % of the total MS area, Rat Plasma (Male) ([2]; after Cmpd 28, sampled at 4 h): not seen
- % of the total MS area, Dog Hepatocytes (Mixed gender) ([3]; Cmpd 28 incubated for 120 min, 4 μM): not detected

SMILES: Cc1cc(-c2ccc(C(=O)[C@@H]3CCCC[C@H]3C(N)=O)cc2)n[nH]1 [Cmpd 28 M8]
- % of the total MS area, Rat Plasma (Female) ([2]; after Cmpd 28, sampled at 4 h): 1%
- % of the total MS area, Rat Plasma (Male) ([2]; after Cmpd 28, sampled at 4 h): 3%

SMILES: O=C(O)[C@@H]1CCCC[C@H]1C(=O)c1ccc(-c2cc(CO)[nH]n2)cc1 [Cmpd 28 M10]
- % of the total MS area, Rat Plasma (Male) ([2]; after Cmpd 28, sampled at 4 h): 1%

SMILES: Cc1cc(-c2ccc(C(=O)[C@@H]3CCCC[C@H]3C(=O)Nc3c[nH]nc3C)cc2)n[nH]1 [Cmpd 28 M11]
- % of the total MS area, Dog Plasma (Female) ([1]; after Cmpd 28): 0.5%
- % of the total MS area, Rat Plasma (Female) ([2]; after Cmpd 28, sampled at 4 h): <1%
- % of the total MS area, Rat Plasma (Male) ([2]; after Cmpd 28, sampled at 4 h): 1%

SMILES: CC(=O)Nc1cn(C)nc1C [Cmpd 28 M12]
- % of the total MS area, Rat Plasma (Female) ([2]; after Cmpd 28, sampled at 4 h): 1%
- % of the total MS area, Rat Plasma (Male) ([2]; after Cmpd 28, sampled at 4 h): 1%

SMILES: Cc1cc(-c2ccc(C(=O)[C@@H]3CCCC[C@H]3C(=O)Nc3cn(C)nc3C)cc2)n[nH]1 [Cmpd 28, Cc1cc(-c2ccc(C(=O)[C@@H]3CCCC[C@H]3C(=O)Nc3cn(C)nc3C)cc2)n[nH]1]
- % of the total MS area, Dog Plasma (Female) ([1]; after Cmpd 28): 34%

SMILES: CN(C(=O)c1ccc(Cl)cc1)C(CN1CC(O)C1)C1CC1 (stereo not drawn) [Cmpd 47, CN(C(=O)c1ccc(Cl)cc1)[C@H](CN1CC(O)C1)C1CC1]
- Parent, % of the total MS area ([1]; dog plasma, sampled at 30 min): 5%
- Parent, % of the total MS area ([1]; dog urine, sampled at 7–24 h): 5%
- Parent, % of the total MS area [3, 9]: 83%

SMILES: CC(C)C(CN1CC(O)C1)N(C)C(=O)c1ccc(Cl)cc1 (stereo not drawn) [Cmpd 50, CC(C)[C@@H](CN1CC(C1)O)N(C)C(=O)c2ccc(cc2)Cl]
- Metabolites detected in plasma ([1]; dog plasma): No metabolites
- Parent, % of the total MS area ([1]; dog plasma, sampled at 60 min): >99%
- Parent, % of the total MS area ([1]; dog urine, sampled at 7–24 h): 10%
- Parent, % of the total MS area [3, 9]: 73%

SMILES: CCCC(CN1CC(O)C1)N(C)C(=O)c1ccc(Cl)cc1 (stereo not drawn) [Cmpd 51, CCC[C@@H](CN1CC(O)C1)N(C)C(=O)c1ccc(Cl)cc1]
- N-oxide, % of the total MS area ([1]; dog plasma, sampled at 60 min): not observed
- Parent, % of the total MS area ([1]; dog plasma, sampled at 60 min): 20%
- N-oxide, % of the total MS area ([1]; dog urine, sampled at 7–24 h): not observed
- Parent, % of the total MS area ([1]; dog urine, sampled at 7–24 h): 22%
- Parent, % of the total MS area [3, 9]: 80%

SMILES: CN(C(=O)c1ccc(C#N)cc1)C(CN1CC(O)C1)c1ccccc1 (stereo not drawn) [Cmpd 55, CN(C(=O)c1ccc(C#N)cc1)[C@H](CN1CC(O)C1)c1ccccc1]
- N-oxide, % of the total MS area ([1]; dog plasma, sampled at 60 min): not observed
- Parent, % of the total MS area ([1]; dog plasma, sampled at 60 min): 49%
- N-oxide, % of the total MS area ([1]; dog urine, sampled at 7–24 h): not observed
- Parent, % of the total MS area ([1]; dog urine, sampled at 7–24 h): 61%
- N-oxide, % of the total MS area [3, 9]: no N-oxidation was seen
- Parent, % of the total MS area [3, 9]: 97%

SMILES: COc1ccc(-c2nnc(C(=O)N3CC(Oc4ccc(CN(C)C)c(C)c4)C3)o2)cc1 [Cmpd 67, COc1ccc(-c2nnc(C(=O)N3CC(Oc4ccc(CN(C)C)c(C)c4)C3)o2)cc1]
- Metabolites / metabolic pathways identified [4]: N- and O-demethylation are major metabolic pathways
- HH CLint [5]: 16 μL/min/1E6

SMILES: COc1ccc(-c2nnc(C(=O)N3CC(Oc4ccc(CN5CC(C)(O)C5)c(C)c4)C3)o2)cc1 [Cmpd 81, COc1ccc(-c2nnc(C(=O)N3CC(Oc4ccc(CN5CC(C)(O)C5)c(C)c4)C3)o2)cc1]
- Metabolites / metabolic pathways identified [4]: O-demethylation pathway remains the major metabolic route
- solubility at 24 h [6]: 71 µM (≈ 33 µg/mL)
- HH CLint [5]: 17 μL/min/1E6

Source: publication PMC12587390, “Metabolite Identification Data in Drug Discovery, Part 1: Data Generation and Trend Analysis” (Molecular Pharmaceutics, 2025)
